Inhibition and IC50 data for 38 compounds are collected here from ChEMBL document CHEMBL1641584 (Bioorg Med Chem Lett, 2011).

Active and inactive are the calls of the source. The rule behind the calls is not given here.

The species named for one test is Cavia porcellus. The test is described as follows: Inhibition of guinea pig protein-glutamine gamma-glutamyltransferase 2-mediated amyloid-beta oligomerization at 0.1 to 10 uM.
On to `NNC(=O)CSc1nc2sc3c(c2c(=O)n1-c1cccc(F)c1)C(c1ccccc1)CCC3` (stereo not drawn), for which the inhibition result was “Active”.

Molecular target in another test: not listed separately
In words: Inhibition of guinea pig protein-glutamine gamma-glutamyltransferase 2 assessed as fluorescent intensity of monodansyl cadaverine. More on the design: species or system Cavia porcellus.
As to `COC(=O)C(CSSCC(NCCC(=O)c1nccs1)C(=O)OC)NCCC(=O)c1nccs1` (stereo not drawn), the half-inhibitory concentration (IC50) (as a rule, the concentration that inhibits the measured activity by half) is 9700 nM.
Consider `COC(=O)C(CCSSCCC(NCCC(=O)c1ccc(Br)s1)C(=O)OC)NCCC(=O)c1ccc(Br)s1` (stereo not drawn), for which the IC50 stood at 99 nM.
On the same count and under the same terms, the result for `COC(=O)C(CSSCC(NCCC(=O)c1cccs1)C(=O)OC)NCCC(=O)c1cccs1` (stereo not drawn) reads 400 nM; that for `COC(=O)C(CSSCC(NCCC(=O)c1cccc(Br)n1)C(=O)OC)NCCC(=O)c1cccc(Br)n1` (stereo not drawn), 1100 nM.
Regarding `O=C(CCNCCSSCCNCCC(=O)c1ccsc1)c1ccsc1`, the half-inhibitory concentration (IC50) is 1600 nM.
On the same count and under the same terms, next, `COC(=O)C(CSSCC(NCCC(=O)c1ccc(I)s1)C(=O)OC)NCCC(=O)c1ccc(I)s1` (stereo not drawn): 240 nM.
The same measure, in the same setting: the result for `COC(=O)C(CSSCC(NCCC(=O)c1ccc(Cl)s1)C(=O)OC)NCCC(=O)c1ccc(Cl)s1` (stereo not drawn) reads 190 nM; that for `O=C(CCNCCSSCCNCCC(=O)c1cccc(Br)n1)c1cccc(Br)n1`, 2600 nM.
Same read-out and setting: the result for `O=C(CCNCCSSCCNCCC(=O)c1cccs1)c1cccs1` reads 510 nM; that for `O=C(CCNCCSSCCNCCC(=O)c1ccc(Br)s1)c1ccc(Br)s1`, 120 nM; that for `O=C(CCNCCSSCCNCCC(=O)c1ccc2ccccc2c1)c1ccc2ccccc2c1`, 2000 nM.
`O=C(CCNCCSSCCNCCC(=O)c1ccc(I)s1)c1ccc(I)s1`: the IC50 was found to be 170 nM.
On to `COC(=O)C(CSSCC(NCCC(=O)c1cc2ccccc2s1)C(=O)OC)NCCC(=O)c1cc2ccccc2s1` (stereo not drawn), for which the IC50 was 900 nM.
As to `COC(=O)C(CCSSCCC(NCCC(=O)c1ccc(I)s1)C(=O)OC)NCCC(=O)c1ccc(I)s1` (stereo not drawn), the half-maximal inhibitory concentration (IC50) is 100 nM.
`COC(=O)C(CSSCC(NCCC(=O)c1ccc2ccccc2c1)C(=O)OC)NCCC(=O)c1ccc2ccccc2c1` (stereo not drawn): the half-maximal inhibitory concentration (IC50) stood at 19000 nM.
Same read-out and setting: next, `COC(=O)C(CCSSCCC(NCCC(=O)c1ccc(Br)cc1)C(=O)OC)NCCC(=O)c1ccc(Br)cc1` (stereo not drawn): 1600 nM.
On the same count and under the same terms, next, `O=C(CCNCCSSCCNCCC(=O)c1ccc(Br)cc1)c1ccc(Br)cc1`: 120 nM.
Take `COC(=O)C(CSSCC(NCCC(=O)c1ccncc1)C(=O)OC)NCCC(=O)c1ccncc1` (stereo not drawn): the IC50 amounted to 3400 nM.
Consider `COC(=O)C(CCSSCCC(NCCC(=O)c1sccc1Br)C(=O)OC)NCCC(=O)c1sccc1Br` (stereo not drawn), for which the 50% inhibitory concentration (IC50) came out at 330 nM.
For `O=C(CCNCCSSCCNCCC(=O)c1sccc1Br)c1sccc1Br`, the IC50 is 210 nM.
In the case of `COC(=O)C(CSSCC(NCCC(=O)c1ccc(C#N)cc1)C(=O)OC)NCCC(=O)c1ccc(C#N)cc1` (stereo not drawn), the 50% inhibitory concentration (IC50) is 1300 nM.
The same measure, in the same setting: the result for `O=C(CCNCCSSCCNCCC(=O)c1ccccc1)c1ccccc1` reads 2200 nM; that for `COC(=O)C(CSSCC(NCCC(=O)c1ncc(C)s1)C(=O)OC)NCCC(=O)c1ncc(C)s1` (stereo not drawn), 4000 nM; that for `COC(=O)C(CSSCC(NCCC(=O)c1ccc(Br)s1)C(=O)OC)NCCC(=O)c1ccc(Br)s1` (stereo not drawn), 180 nM.
Regarding `N#Cc1ccc(C(=O)CCNCCSSCCNCCC(=O)c2ccc(C#N)cc2)cc1`, the IC50 was 1100 nM.
Same read-out and setting: next, `O=C(CCNCCSSCCNCCC(=O)c1cc2ccccc2s1)c1cc2ccccc2s1`: 170 nM; `COC(=O)C(CSSCC(NCCC(=O)c1ccco1)C(=O)OC)NCCC(=O)c1ccco1` (stereo not drawn): 2900 nM.
Still for that read-out and setting: the result for `COC(=O)C(CCSSCCC(NCCC(=O)c1cc2ccccc2s1)C(=O)OC)NCCC(=O)c1cc2ccccc2s1` (stereo not drawn) reads 120 nM; that for `O=C(CCNCCSSCCNCCC(=O)c1cccnc1)c1cccnc1`, 1400 nM.
The same measure, in the same setting: next, `COC(=O)C(CSSCC(NCCC(=O)c1ncccn1)C(=O)OC)NCCC(=O)c1ncccn1` (stereo not drawn): 5500 nM; `COC(=O)C(CSSCC(NCCC(=O)c1sccc1Br)C(=O)OC)NCCC(=O)c1sccc1Br` (stereo not drawn): 5700 nM.
Consider `COC(=O)C(CSSCC(NCCC(=O)c1ccc(Br)cc1)C(=O)OC)NCCC(=O)c1ccc(Br)cc1` (stereo not drawn), for which the IC50 came out at 11000 nM.
For the compound `O=C(CCNCCSSCCNCCC(=O)c1ccc(I)cc1)c1ccc(I)cc1`, the IC50 came to 890 nM.
Same read-out and setting: the result for `O=C(CCNCCSSCCNCCC(=O)c1ccco1)c1ccco1` reads 420 nM; that for `COC(=O)C(CCSSCCC(NCCC(=O)c1cccs1)C(=O)OC)NCCC(=O)c1cccs1` (stereo not drawn), 3600 nM; that for `O=C(CCNCCSSCCNCCC(=O)c1ccc(Cl)s1)c1ccc(Cl)s1`, 120 nM.
Still for that read-out and setting: the result for `COC(=O)C(CCSSCCC(NCCC(=O)c1ccc(Cl)s1)C(=O)OC)NCCC(=O)c1ccc(Cl)s1` (stereo not drawn) reads 120 nM.
